pIC50: −log10 of the molar value. Read-outs that look alike come from different tables or passages of the source.
Tests used:
[1] = tested on: Ub-PCNA levels in the nucleus of ES2 cells (USP1 activity); test: ES2 Ub-PCNA immunofluorescence (IF) assay; type: cell-based; settings: Homo sapiens, ES-2; ES2 cells, 3 hours, Ub-PCNA immunofluorescence; read-out: USP1 IC50 (Ub-PCNA)
Procedure, shortened: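 Cells plated overnight, then compound-treated for 3 h at 37° C (0.3% DMSO final), methanol-fixed and stained with anti-Ub-PCNA plus DAPI. Per-nucleus Ub-PCNA intensity imaged; cells above the 95% cutoff of untreated wells counted as positive, and percent positive cells used to derive AC50.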

[2] = ADME solubility determination in PBS at pH 2.0 and pH 7.4; type: physicochemical; settings: phosphate buffered saline, 25 °C, thermodynamic from solid
Procedure, shortened: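 Dried 10 mM DMSO stock residues taken up in PBS pH 7.4 or pH 2.0, shaken 24 h at 25° C. After centrifugation, supernatant quantified by LC-MS/MS against a standard of known concentration, with a dilution factor applied.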

[3] = Liver microsomal metabolic stability, rat liver microsomes (RLM); settings: rat, liver microsomes, t1/2 (min) in RLM, 1 μM compound, 1 mg/mL microsomes, NADPH
USP1/UAF1 enzyme = USP1/UAF1 enzyme (Homo sapiens, UniProt O94782); test: USP1/UAF1 deubiquitination assay (ubiquitin-rhodamine 110 substrate); type: biochemical; settings: read-out: USP1 IC50 (Ub-Rho)
Procedure, shortened: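 0.05 nM USP1/UAF1 was preincubated 10 min with compounds (dose response from 10 μM) in 50 mM Tris-HCl pH 7.8, 0.5 mM EDTA, 0.01% BSA, 1 mM DTT, 0.01% Tween-20. 150 nM ubiquitin-rhodamine 110 started the reaction, read kinetically 30 min at Ex480/Em540; IC50 by four-parameter fit versus no-enzyme and DMSO controls.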

[4] = Liver microsomal metabolic stability, human liver microsomes (HLM); settings: human, liver microsomes
[5] = pH 2, aqueous buffer, PBS pH 2.0, 25° C., read-out: Solubility at pH 2.0
[6] = pH 7.4, aqueous buffer, PBS pH 7.4, 25° C., read-out: Solubility at pH 7.4

Chain of USP1/UAF1 enzyme (O94782 whole entry): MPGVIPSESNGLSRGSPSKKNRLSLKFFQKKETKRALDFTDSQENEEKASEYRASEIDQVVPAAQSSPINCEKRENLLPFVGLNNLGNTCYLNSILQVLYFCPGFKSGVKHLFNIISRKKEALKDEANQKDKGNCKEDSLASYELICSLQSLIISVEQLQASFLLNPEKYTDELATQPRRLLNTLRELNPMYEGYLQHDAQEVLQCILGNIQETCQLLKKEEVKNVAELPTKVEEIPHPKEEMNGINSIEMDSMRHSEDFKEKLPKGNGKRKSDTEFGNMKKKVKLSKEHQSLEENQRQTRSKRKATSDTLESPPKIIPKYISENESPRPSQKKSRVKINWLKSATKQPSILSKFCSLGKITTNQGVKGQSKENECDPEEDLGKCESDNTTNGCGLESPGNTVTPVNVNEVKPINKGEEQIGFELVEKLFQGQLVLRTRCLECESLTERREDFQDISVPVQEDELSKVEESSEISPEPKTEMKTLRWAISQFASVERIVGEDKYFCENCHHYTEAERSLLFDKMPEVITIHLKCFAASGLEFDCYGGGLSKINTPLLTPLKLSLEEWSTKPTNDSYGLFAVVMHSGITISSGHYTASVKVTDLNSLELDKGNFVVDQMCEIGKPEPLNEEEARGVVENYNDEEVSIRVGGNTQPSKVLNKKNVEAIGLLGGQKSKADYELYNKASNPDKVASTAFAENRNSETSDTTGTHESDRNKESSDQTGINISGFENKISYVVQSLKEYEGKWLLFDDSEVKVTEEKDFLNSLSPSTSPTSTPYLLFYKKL
Chain of USP1/UAF1 enzyme (Q8TAF3 whole entry partner): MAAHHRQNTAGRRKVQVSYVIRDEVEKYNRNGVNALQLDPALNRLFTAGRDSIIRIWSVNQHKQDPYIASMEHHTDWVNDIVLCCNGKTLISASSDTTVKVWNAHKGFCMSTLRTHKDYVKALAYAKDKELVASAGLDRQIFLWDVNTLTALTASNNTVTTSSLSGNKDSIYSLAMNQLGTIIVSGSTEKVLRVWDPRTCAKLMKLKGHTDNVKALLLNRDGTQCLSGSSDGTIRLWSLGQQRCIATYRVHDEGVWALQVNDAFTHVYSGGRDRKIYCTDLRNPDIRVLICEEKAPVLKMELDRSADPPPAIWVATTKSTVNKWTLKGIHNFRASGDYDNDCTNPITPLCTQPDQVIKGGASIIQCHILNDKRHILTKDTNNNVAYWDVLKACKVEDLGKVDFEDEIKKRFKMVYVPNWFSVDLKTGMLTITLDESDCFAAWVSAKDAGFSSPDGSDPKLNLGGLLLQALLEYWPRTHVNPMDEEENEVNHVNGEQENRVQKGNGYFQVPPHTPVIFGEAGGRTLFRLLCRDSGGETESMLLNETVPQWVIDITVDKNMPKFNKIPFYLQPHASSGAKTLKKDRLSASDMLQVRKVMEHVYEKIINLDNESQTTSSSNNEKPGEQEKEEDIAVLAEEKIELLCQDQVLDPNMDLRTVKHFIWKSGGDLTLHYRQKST

Row | pIC50 [1] | solubility at 24 h [2, 5] | solubility at 24 h [2, 6] | half-life at 1 μM [3] | pIC50 (USP1/UAF1 enzyme) | half-life at 1 μM [4] | SMILES
1 | > 7.00 | < 10 µM | < 10 µM | < 25 min | > 7.00 | < 25 min | CC1CCn2nc(-c3c(Cl)cnn3C(C)C)cc2N1Cc1ccc(-c2nc(C(F)(F)F)cn2C(C)C)c(F)c1 (stereo not drawn) [Example 50]
2 | 6.30 to 7.00 | < 10 µM | < 10 µM | < 25 min | > 7.00 | < 25 min | Cc1cnn(C(C)C)c1-c1cc2n(n1)CCCN2Cc1ccc(-c2nc(C(F)(F)F)nn2C)cc1 [Example 53]
3 | > 7.00 | ≥ 10 µM | < 10 µM | < 25 min | > 7.00 | < 25 min | Cc1cnn(C(C)C)c1-c1cc2n(n1)CCCN2Cc1ccc(-c2nc(C(F)(F)F)cn2C)c(F)c1 [Example 55]
4 | > 7.00 | ≥ 10 µM | < 10 µM | < 25 min | > 7.00 | < 25 min | COc1ncnc(C2CC2)c1-c1cc2n(n1)CCCN2Cc1ccc(-c2nc(C(F)(F)F)cn2C(C)C)cc1 [Example 58]
5 | > 7.00 | ≥ 10 µM | < 10 µM | < 25 min | > 7.00 | < 25 min | CCn1cc(C(F)(F)F)nc1-c1ccc(C(C)N2CCCn3nc(-c4c(OC)ncnc4C4CC4)cc32)cc1 (stereo not drawn) [Example 66]
6 | < 6.30 | < 10 µM | < 10 µM | < 25 min | 6.30 to 7.00 | < 25 min | Cc1cnn(C(C)C)c1-c1cc2n(n1)CCC(=O)N2Cc1ccc(-c2nc(C(F)(F)F)c[nH]2)cc1 [Example 70]
7 | > 7.00 | < 10 µM | < 10 µM | > 25 min | > 7.00 | > 25 min | CCn1cc(C(F)(F)F)nc1-c1ccc(CN2C(=O)CCn3nc(-c4c(OC)ncnc4C4CC4)cc32)cc1 [Example 71, 2-(4-cyclopropyl-6-methoxypyrimidin-5-yl)-4-(4-(1-ethyl-4-(trifluoromethyl)-1H-imidazol-2-yl)benzyl)-6,7-dihydropyrazolo[1,5-α]pyrimidin-5(4H)-one]
8 | 6.30 to 7.00 | < 10 µM | < 10 µM | < 25 min | > 7.00 | < 25 min | Cc1cnn(C(C)C)c1-c1cc2n(n1)CCC(=O)N2Cc1ccc(-c2nc(C(F)(F)F)cn2C(C)C)cc1 [Example 73]
9 | > 7.00 | < 10 µM | < 10 µM | > 25 min | > 7.00 | > 25 min | CCn1cc(C(F)(F)F)nc1-c1ccc(CN2C(=O)CCn3nc(-c4c(OC)ncnc4C4CC4)cc32)cc1F [Example 78]
10 | > 7.00 | < 10 µM | < 10 µM | > 25 min | > 7.00 | > 25 min | CC(C)n1cc(C(F)(F)F)nc1-c1ccc(CN2C(=O)CCn3nc(-c4c(Cl)cnn4C(C)C)cc32)cc1 [Example 91]
11 | > 7.00 | < 10 µM | < 10 µM | > 25 min | > 7.00 | > 25 min | CCn1cc(C(F)(F)F)nc1-c1ccc(CN2C(=O)CCn3nc(-c4c(Cl)cnn4C(C)C)cc32)cc1 [Example 97]

The next lines start with the molecule.

Row | SMILES | pIC50 [1] | solubility at 24 h [2, 5] | solubility at 24 h [2, 6] | half-life at 1 μM [3] | pIC50 (USP1/UAF1 enzyme) | half-life at 1 μM [4]
12 | COc1cc(CN2C(=O)CCn3nc(-c4c(OC)ncnc4C(C)C)nc32)ccc1-c1nc(C(F)(F)F)cn1C(C)C [Example 46] | 6.30 to 7.00 | ≥ 10 µM | ≥ 10 µM | > 25 min | 6.30 to 7.00 | > 25 min
13 | CCn1cc(C(F)(F)F)nc1-c1ccc(CN2c3cc(-c4c(OC)ncnc4C4CC4)nn3CCC2C)cc1F (stereo not drawn) [Example 49] | > 7.00 | ≥ 10 µM | < 10 µM | < 25 min | > 7.00 | < 25 min
14 | Cc1cnn(C(C)C)c1-c1cc2n(n1)CCCN2Cc1ccc(-c2nc(C(F)(F)F)cn2C(C)C)cc1 [Example 54] | > 7.00 | ≥ 10 µM | < 10 µM | < 25 min | > 7.00 | < 25 min
15 | COc1cc(C(F)(F)F)nn1-c1ccc(CN2CCCn3nc(-c4c(C)cnn4C(C)C)cc32)cc1F [Example 57] | > 7.00 | < 10 µM | < 10 µM | < 25 min | > 7.00 | < 25 min
16 | CC(C)n1cc(C(F)(F)F)nc1-c1ccc(CN2CCCn3nc(-c4c(Cl)cnn4C(C)C)cc32)cc1F [Example 59] | > 7.00 | < 10 µM | < 10 µM | < 25 min | > 7.00 | < 25 min
17 | CC(C)n1ncc(Cl)c1-c1cc2n(n1)CCCN2Cc1ccc(-c2nc(C(F)(F)F)cn2C)c(F)c1 [Example 61] | > 7.00 | < 10 µM | < 10 µM | < 25 min | > 7.00 | < 25 min
18 | CC(C)n1ncc(Cl)c1-c1cc2n(n1)CCCN2Cc1ccc(-c2nc(C(F)(F)F)cn2CCF)cc1 [Example 62] | > 7.00 | < 10 µM | < 10 µM | < 25 min | > 7.00 | < 25 min
19 | COc1ncnc(C2CC2)c1-c1cc2n(n1)CCCN2Cc1ccc(-c2nc(C(F)(F)F)cn2C(C)C)c(F)c1 [Example 63] | > 7.00 | ≥ 10 µM | < 10 µM | < 25 min | > 7.00 | < 25 min
20 | CCn1cc(C(F)(F)F)nc1-c1ccc(CN2CCCn3nc(-c4c(OC)ncnc4C4CC4)cc32)cc1F [Example 64] | > 7.00 | ≥ 10 µM | < 10 µM | < 25 min | > 7.00 | < 25 min
21 | CCn1cc(C(F)(F)F)nc1-c1ccc(C(C)N2CCCn3nc(-c4c(Cl)cnn4C(C)C)cc32)cc1 (stereo not drawn) [Example 65] | > 7.00 | < 10 µM | < 10 µM | < 25 min | > 7.00 | < 25 min
22 | COc1ncnc(C2CC2)c1-c1cc2n(n1)CCC(=O)N2Cc1ccc(-c2nc(C(F)(F)F)cn2C(C)C)cc1 [Example 72] | 6.30 to 7.00 | < 10 µM | < 10 µM | > 25 min | > 7.00 | > 25 min
23 | COc1cccc(C)c1-c1cc2n(n1)CCCN2Cc1ccc(-c2nc(C(F)(F)F)cn2C)cc1 [Example 74, 2-(2-methoxy-6-methylphenyl)-4-(4-(1-methyl-4-(trifluoromethyl)-1H-imidazol-2-yl)benzyl)-4,5,6,7-tetrahydropyrazolo[1,5-α]pyrimidine] | < 6.30 | ≥ 10 µM | < 10 µM | < 25 min | > 7.00 | < 25 min
24 | COc1cccc(C)c1-c1cc2n(n1)CCC(=O)N2Cc1ccc(-c2nc(C(F)(F)F)cn2C)cc1 [Example 75, 2-(2-methoxy-6-methylphenyl)-4-(4-(1-methyl-4-(trifluoromethyl)-1H-imidazol-2-yl)benzyl)-6,7-dihydropyrazolo[1,5-α]pyrimidin-5(4H)-one] | 6.30 to 7.00 | ≥ 10 µM | < 10 µM | < 25 min | > 7.00 | < 25 min
25 | CC(C)n1ncc(Cl)c1-c1cc2n(n1)CCC(=O)N2Cc1ccc(-c2nc(C(F)(F)F)cn2CCF)cc1 [Example 79] | > 7.00 | < 10 µM | < 10 µM | > 25 min | > 7.00 | > 25 min
26 | COc1ncnc(C2CC2)c1-c1cc2n(n1)CCC(=O)N2Cc1ccc(-n2nc(C(F)(F)F)cc2OC)cc1 [Example 80] | 6.30 to 7.00 | < 10 µM | < 10 µM | > 25 min | > 7.00 | > 25 min
27 | Cc1cc(C(F)(F)F)nn1-c1ccc(CN2C(=O)CCn3nc(-c4c(Cl)cnn4C(C)C)cc32)cc1 [Example 86] | 6.30 to 7.00 | < 10 µM | < 10 µM | > 25 min | > 7.00 | > 25 min
28 | COc1cc(C(F)(F)F)nn1-c1ccc(CN2C(=O)CCn3nc(-c4c(Cl)cnn4C(C)C)cc32)cc1 [Example 96] | > 7.00 | < 10 µM | < 10 µM | > 25 min | > 7.00 | > 25 min

From US20230219965A1 (KSQ Therapeutics, Inc., priority 2020, published 2023)
